Reference: patent publication USRE47689E1, “Compounds for treating spinal muscular atrophy” (PTC Therapeutics, Inc., priority 2011, dated 2019)

Assays:
[1] = system: SMN2 minigene (full length SMN2 minigene mRNA containing SMN2 exon 7); assay: SMN2 minigene mRNA splicing RT-qPCR assay in cultured cells; assay type: cell-based, human; settings: Homo sapiens, HEK293-H; HEK293H cells stably transfected with SMN2-A minigene; 24 hours; 7-point concentration curve; 1.5-fold relative to vehicle-treated cells; read-out: EC1.5x for production of full length SMN2 mRNA
How it was run: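 Lysates → one-step RT-qPCR, minigene-specific primers (0.4 μM final) + GAPDH multiplex, 40 cycles. FL/GAPDH vs DMSO; EC1.5x, star-binned.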

Smn protein = Smn protein assay in cultured cells (SMN HTRF); assay type: cell-based, human; settings: 48 hours; for maximum fold (Fold) increase of Smn protein: SMA patient fibroblast cells, 7-point concentration data, fold increase relative to vehicle control (SMN HTRF); for EC1.5x (concentration giving 1.5-fold Smn protein increase): SMA Type 1 patient fibroblast cells (GM03813), 7-point concentration curve, SMN HTRF, concentration producing 1.5 times Smn protein vs DMSO vehicle control, read-out: EC1.5x for Smn protein expression
How it was run: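 Smn in SMA fibroblast lysates, measured by anti-SMN HTRF after 48 h compound exposure; EC1.5x from fold change over vehicle.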

melting point	Structure (SMILES)	EC (1.5-fold) [1] [µM]	maximum fold (Fold) increase of Smn protein (Smn protein)	EC1.5x (concentration giving 1.5-fold Smn protein increase) (Smn protein) [nM]
153 to 155 °C	COc1cc(-c2cc3ccc(N4CCNCC4)cc3oc2=O)ccc1F [Compound 576, 3-(4-fluoro-3-methoxyphenyl)-7-(piperazin-1-yl)-2H-chromen-2-one]	1 to 3	* (maximum fold increase of ≤1.2)	
220 °C (dec.)	Cc1cn2cc(-c3cc4ccc(N5CCNCC5)cc4oc3=O)cc2cn1 [Cpd 588, 3-(3-methylpyrrolo[1,2-a]pyrazin-7-yl)-7-(piperazin-1-yl)-2H-chromen-2-one]	< 0.1	***** (fold increase >1.65)	< 300
135 to 137 °C	Cc1cccc(Nc2cc3ccc(N4CCNCC4)cc3oc2=O)n1 [Compound 64, 3-[(6-methylpyridin-2-yl)amino]-7-(piperazin-1-yl)-2H-chromen-2-one]	1 to 3	* (maximum fold increase of ≤1.2)	

The remaining lines, values behind:

Structure (SMILES)	melting point	EC (1.5-fold) [1] [µM]	maximum fold (Fold) increase of Smn protein (Smn protein)	EC1.5x (concentration giving 1.5-fold Smn protein increase) (Smn protein) [nM]
CN1CCCN(c2ccc3cc(-c4cn5ccc(C(F)(F)F)cc5n4)c(=O)oc3c2)CC1 [Compound 276, 7-(4-methyl-1,4-diazepan-1-yl)-3-[7-(trifluoromethyl)imidazo[1,2-a]pyridin-2-yl]-2H-chromen-2-one]	244 to 249 °C	0.3 to 1	* (maximum fold increase of ≤1.2)	
COc1ccc(-c2cc3ccc(N4CCNCC4)cc3oc2=O)c(OC)c1 [Compound 465, 3-(2,4-dimethoxyphenyl)-7-(piperazin-1-yl)-2H-chromen-2-one]	171 to 173 °C	3 to 30	* (maximum fold increase of ≤1.2)	
Cc1cn2cc(-c3cc4ccc(CCNC(CO)CO)cc4oc3=O)nc2c(C)n1 [Compound 873, 7-{2-[(1,3-dihydroxypropan-2-yl)amino]ethyl}-3-(6,8-dimethylimidazo[1,2-a]pyrazin-2-yl)-2H-chromen-2-one]	217 to 221 °C	< 0.1	**** (fold increase between >1.5 and ≤1.65)	300 to 1000
O=c1oc2cc(N3CCNCC3)ccc2cc1-c1cn2cccc(C(F)(F)F)c2n1 [Compound 209, 7-(piperazin-1-yl)-3-[8-(trifluoromethyl)imidazo[1,2-a]pyridin-2-yl]-2H-chromen-2-one]	249 to 252 °C	0.3 to 1	* (maximum fold increase of ≤1.2)	
C[C@@H]1CN(c2ccc3cc(-c4cn5cccc(Cl)c5n4)c(=O)oc3c2)CCN1C [Compound 296, 3-(8-chloroimidazo[1,2-a]pyridin-2-yl)-7-[(3R)-3,4-dimethylpiperazin-1-yl]-2H-chromen-2-one]	199 to 202 °C	0.1 to 0.3	*** (fold increase between >1.35 and ≤1.5)	
Cc1nc(C)c2cc(-c3cc4ccc(N5CCNCC5)cc4oc3=O)sc2n1 [Cpd 705, 3-(2,4-dimethylthieno[2,3-d]pyrimidin-6-yl)-7-(piperazin-1-yl)-2H-chromen-2-one]	275 °C (dec.)	0.1 to 0.3	*** (fold increase between >1.35 and ≤1.5)	
CCCN1CCN(c2ccc3cc(-c4cn5cccc(C)c5n4)c(=O)oc3c2)CC1 [Compound 101, 3-(8-methylimidazo[1,2-a]pyridin-2-yl)-7-(4-propylpiperazin-1-yl)-2H-chromen-2-one]	249 to 251 °C	1 to 3	** (fold increase between >1.2 and ≤1.35)	
Cc1cn2cc(-c3cc4ccc(N(C)[C@H]5CCN(C)C5)cc4oc3=O)nc2c(C)n1 [Compound 656, 3-(6,8-dimethylimidazo[1,2-a]pyrazin-2-yl)-7-{methyl[(3S)-1-methylpyrrolidin-3-yl]amino}-2H-chromen-2-one]	178 to 184 °C	< 0.1	***** (fold increase >1.65)	< 300
